Laboratory results: article PMC10787893, “Expression and characterization of the new antimicrobial peptide AP138L-arg26 anti Staphylococcus aureus” (Applied Microbiology and Biotechnology, 2024)
Bridge positions count the residues as written; N and C are the ends. Peptide text beside a SMILES is read from it.

Tests used:
[1] = tested on: Staphylococcus aureus CVCC 546; test: MIC and MBC, broth microdilution; assay type: cell-based
Description: (§1) To determine the MIC values of AP138L-arg26, we used the broth microdilution technique as previously described (Andrews. [2001]; Wiegand et al. [2008]). In brief, AP138L-arg26 peptide were diluted from 1280 to 2.5 µg/mL and added to a 96-cells plate with 10 µL per well. The bacteria in the logarithmic stage were diluted to 10^5 CFU/mL with 90 µL per well. […] The MBC method was also based on the CLSI 2021 guidelines.

[2] = tested on: Streptococcus dysgalactiae CVCC 3938; test: MIC and MBC, broth microdilution; assay type: cell-based
Description: as §1

[3] = tested on: Staphylococcus epidermidis ATCC 35984; test: MIC and MBC, broth microdilution; assay type: cell-based
Description: as §1

[4] = tested on: Staphylococcus aureus ATCC 25923; test: MIC and MBC, broth microdilution; assay type: cell-based
Description: as §1

[5] = tested on: Staphylococcus aureus E48; test: MIC and MBC, broth microdilution; assay type: cell-based
Description: as §1

[6] = tested on: Streptococcus agalactiae CAU-FRI-2022-01; test: MIC and MBC, broth microdilution; assay type: cell-based
Description: as §1

[7] = tested on: Streptococcus agalactiae ATCC 13813; test: MIC and MBC, broth microdilution; assay type: cell-based
Description: as §1

[8] = tested on: Staphylococcus aureus CAAS-FRI-2023-01; test: MIC and MBC, broth microdilution; assay type: cell-based
Description: as §1

[9] = tested on: Staphylococcus epidermidis ATCC 12228; test: MIC and MBC, broth microdilution; assay type: cell-based
Description: as §1

[10] = tested on: Streptococcus agalactiae CAU-FRI-2022-02; test: MIC and MBC, broth microdilution; assay type: cell-based
Description: as §1

[11] = tested on: Staphylococcus aureus ATCC 43300; test: MIC and MBC, broth microdilution; assay type: cell-based
Description: as §1

[12] = tested on: Staphylococcus aureus CAAS-FRI-2023-02; test: MIC and MBC, broth microdilution; assay type: cell-based
Description: as §1

S. aureus CVCC 546 [13] = test: Intracellular ATP determination; assay type: cell-based, Staphylococcus aureus
From the text: As ATP is the most direct source of energy for living organisms, the effect of antimicrobial peptides on ATP was explored with an ATP assay kit (Beyotime, Shanghai, China). […] The luminescence was detected using an Infinite M200 Microplate reader (Tecan, Luminescence signals).

[14] = tested on: mouse macrophages RAW264.7; test: Cytotoxicity, MTT method; assay type: cell-based; details: 256 µg/mL; RAW264.7, MTT
From the text: The cytotoxicity of AP138L-arg26 to mouse macrophages RAW264.7 was detected by the thiazolyl blue tetrazolium bromide (MTT) method as described previously (Shen et al. [2021]).

S. aureus CVCC 546 [15] = test: Artificial intestinal juice (trypsin) stability, MIC after treatment; assay type: in vitro ADME, Staphylococcus aureus; details: then MIC assay
S. aureus CVCC 546 [16] = test: pH stability, MIC after treatment; assay type: physicochemical, Staphylococcus aureus
S. aureus CVCC 546 [17] = test: Growth curve of S. aureus; assay type: cell-based, Staphylococcus aureus; details: AP138L-arg26 8 µg/mL (2 × MIC), ceftiofur sodium 0.25 µg/mL (1/8 MIC), alone or combined; 1 × 10^5 CFU/mL
Description: Samples were taken during the logarithmic growth of S. aureus and diluted to 1 × 10^5 CFU/mL (Delpech et al. [2019]). Different concentrations of AP138L-arg26, ceftiofur sodium, or a combination of them with an equal volume of bacteria were added to a 96-well microplate. The growth curves were recorded using a fully automatic growth curve recording instrument.

S. aureus CVCC 546 [18] = test: Serum stability, MIC after treatment; assay type: in vitro ADME, Staphylococcus aureus; details: then MIC
From the text: Table 4 The stability of AMPs in different environments | column: MIC

S. aureus CVCC 546 [19] = test: SYTO9/PI membrane integrity assay; assay type: cell-based, Staphylococcus aureus; details: 2 × MIC, 37 °C, 1 h; 1 × 10^9 CFU/mL; fluorescence microscopy
From the text: To explore the disruption of bacterial cell membranes by the AP138L-arg26, a SYTO9/PI kit was used to detect the integrity of cell membranes (L7007 LIVE/DEAD^R BacLight™ Bacerial Viability Kits). The unique feature of this kit is that SYTO9 alone can pass through integral cell membranes, while PI can only penetrate damaged cell membranes. […] Finally, the results were observed using fluorescence microscopy.

S. aureus CVCC 546 [20] = test: Potassium ion (K+) leakage, ICP-MS; assay type: cell-based, Staphylococcus aureus
From the text: The integrity effect of antimicrobial peptide AP138L-arg26 on bacterial cell membranes was further verified, and the K^+ leakage assay was previously described (Li et al. [2020]). Briefly, the main procedures were as follows: Firstly, prepare the S. aureus CVCC 546 bacteria suspension at a concentration of 1 × 10^8 CFU/mL. […] Finally, the supernatants were detected using inductively coupled plasma mass spectrometry (ICP-MS) (SantaClara, CA, USA).

[21] = 99.99% of bacteria killed, plated on MHA
[22] = broth microdilution, 10^5 CFU/mL, 37 °C, 18 h

CC[C@H](C)[C@@H]1NC(=O)[C@H](CO)NC(=O)[C@H](CCCCN)NC(=O)[C@@H]2CSSC[C@@H](C(=O)N[C@@H](Cc3ccc(O)cc3)C(=O)O)NC(=O)[C@H](CCCCN)NC(=O)[C@@H]3CSSC[C@H](NC(=O)[C@H](CCCNC(=N)N)NC(=O)[C@H](CC(C)C)NC(=O)[C@H](CC(=O)O)NC(=O)[C@H](CC(=O)O)NC(=O)[C@H](CCC(=O)O)NC(=O)[C@H](CO)NC(=O)[C@H](Cc4c[nH]c5ccccc45)NC(=O)[C@@H]4CCCN4C(=O)CNC(=O)[C@H](CC(N)=O)NC(=O)[C@@H](NC(=O)CNC(=O)[C@H](Cc4ccccc4)NC(=O)CN)CSSC[C@H](NC(=O)[C@H](Cc4ccc(O)cc4)NC(=O)CNC(=O)CNC(=O)[C@H](CCCNC(=N)N)NC(=O)[C@H](Cc4ccc(O)cc4)NC(=O)CNC(=O)[C@H](CCCCN)NC1=O)C(=O)N[C@@H](C)C(=O)N[C@@H](CCCCN)C(=O)NCC(=O)NCC(=O)N[C@@H](Cc1ccccc1)C(=O)N[C@@H](C(C)C)C(=O)N3)C(=O)N[C@@H](Cc1c[nH]cn1)C(=O)N[C@@H](CCCNC(=N)N)C(=O)N[C@@H](Cc1c[nH]cn1)C(=O)N2 [AP138L-arg26] (H-GFGCNGPWSEDDLRCHRHCKSIKGYRGGYCAKGGFVCKCY-OH; disulfide 4-30, 15-37, 19-39; N-terminus and C-terminus assumed)
32 µg/mL: MBC [1, 21] | MBC [2, 21] | MBC [4, 21] | MBC [6, 21] | MBC [10, 21] | MBC [12, 21]
0.05 mg/L: extracellular K+ leakage level (S. aureus CVCC 546 [20]; 2 × MIC, 37 °C, 1 × 10^8 CFU/mL, ICP-MS, untreated 0.02 mg/L)
8.2 times: intracellular ATP, times higher than the untreated group (S. aureus CVCC 546 [13]; 2 × MIC)
7.6 times: intracellular ATP, times higher than the untreated group (S. aureus CVCC 546 [13]; 1 × MIC)
2 µg/mL: MIC [5, 22]
more than 50%: cells stained red by PI (S. aureus CVCC 546 [19])
over 75%: cell viability [14]
little effect on the growth: effect on the growth of S. aureus CVCC 546 (S. aureus CVCC 546 [17])
4 µg/mL: MIC [1, 22] | MIC [2, 22] | MIC [6, 22] | MIC [7, 22] | MIC [8, 22] | MIC [9, 22] | MIC [10, 22]
8.5 times: intracellular ATP, times higher than the untreated group (S. aureus CVCC 546 [13]; 4 × MIC (maximum))
16 µg/mL: MBC [3, 21] | MIC [4, 22] | MBC [8, 21] | MBC [9, 21] | MIC, pH 4 (S. aureus CVCC 546 [16]; peptide incubated at pH 4 for 1 h at 37 °C, then MIC assay) | MIC, pH 6 (S. aureus CVCC 546 [16]; peptide incubated at pH 6 for 1 h at 37 °C, then MIC assay) | MIC, pH 10 (S. aureus CVCC 546 [16]; peptide incubated at pH 10 for 1 h at 37 °C, then MIC assay) | MIC, 25% serum (1 h) (S. aureus CVCC 546 [18]; peptide in 25% serum for 1 h) | MIC, 25% serum (2 h) (S. aureus CVCC 546 [18]; peptide in 25% serum for 2 h) | MIC, 25% serum (6 h) (S. aureus CVCC 546 [18]; peptide in 25% serum for 6 h)
> 64 µg/mL: MIC, Intestinal juice (0.25 h) (S. aureus CVCC 546 [15]; peptide in artificial intestinal juice for 0.25 h) | MIC, Intestinal juice (0.5 h) (S. aureus CVCC 546 [15]; peptide in artificial intestinal juice for 0.5 h) | MIC, Intestinal juice (1 h) (S. aureus CVCC 546 [15]; peptide in artificial intestinal juice for 1 h) | MIC, Intestinal juice (2 h) (S. aureus CVCC 546 [15]; peptide in artificial intestinal juice for 2 h)
8 µg/mL: MIC [3, 22] | MBC [5, 21] | MBC [7, 21] | MBC [11, 21] | MIC [11, 22] | MIC [12, 22] | MIC, pH 2 (S. aureus CVCC 546 [16]; peptide incubated at pH 2 for 1 h at 37 °C, then MIC assay) | MIC, pH 8 (S. aureus CVCC 546 [16]; peptide incubated at pH 8 for 1 h at 37 °C, then MIC assay) | MIC, 25% serum (0.5 h) (S. aureus CVCC 546 [18]; peptide in 25% serum for 0.5 h) | MIC, 25% serum (4 h) (S. aureus CVCC 546 [18]; peptide in 25% serum for 4 h) | MIC, 25% serum (8 h) (S. aureus CVCC 546 [18]; peptide in 25% serum for 8 h) | MIC, 50% serum (0.5 h) (S. aureus CVCC 546 [18]; peptide in 50% serum for 0.5 h) | MIC, 50% serum (1 h) (S. aureus CVCC 546 [18]; peptide in 50% serum for 1 h) | MIC, 50% serum (2 h) (S. aureus CVCC 546 [18]; peptide in 50% serum for 2 h) | MIC, 50% serum (4 h) (S. aureus CVCC 546 [18]; peptide in 50% serum for 4 h) | MIC, 50% serum (6 h) (S. aureus CVCC 546 [18]; peptide in 50% serum for 6 h) | MIC, 50% serum (8 h) (S. aureus CVCC 546 [18]; peptide in 50% serum for 8 h)
2.5 fold: intracellular potassium leakage relative to control (S. aureus CVCC 546 [20]; as given in the abstract)
unaffected: antimicrobial activity after different pH values (2–10) (S. aureus CVCC 546 [16]; pH 2–10, 1 h, MIC assay)
